From the PolyMetriX glass transition set
± gives the standard deviation of the reports.

SMILES	glass transition temperature [°C]
*CC(*)(CC(=O)OCCCCC)C(=O)OCCCCC (repeat unit)	2.00
*CCOP(=O)(/N=N/c1ccc(Oc2ccc(/N=N/P(=O)(O*)OCC)cc2)cc1)OCC (repeat unit)	22.00
*CC(*)(C#N)C(=O)OC (repeat unit)	147.50
*CCCCCCCCCNC(=O)N* (repeat unit)	130.00
*Cc1ccccc1C[Si](*)(C)C (repeat unit)	75.00
*Oc1ccc(/N=C/CCC/C=N/c2ccc(OC(=O)NCCCCCCNC(*)=O)cc2)cc1 (repeat unit)	72.00
*CC(*)c1ccccc1COCCc1ccccc1 (repeat unit)	63.00
*CCCO* (repeat unit) [Polyoxytrimethylene ]	-78 ± 3
*CC(C)(CC)CO* (repeat unit)	-47.00
*CC(*)C(=O)OC12CC3CC(C)(CC(C)(C3)C1)C2 (repeat unit)	104.00
*CC(S*)c1ccccc1 (repeat unit)	-2.50
*CC(*)Cl (repeat unit) [Poly(vinyl chloride)]	78.42 ± 2.2
*CC(*)OC(=O)C(F)(F)C(F)(F)C(F)(F)C(F)(F)F (repeat unit)	20.00
*CC(O)COc1ccc(C(C)(C)c2ccc(OCC(O)COc3cccc(O*)c3)cc2)cc1 (repeat unit)	83.00
*CC(*)SCC (repeat unit)	-7.00
*/C=C/C(C)C* (repeat unit)	-35.00
*Oc1c(C)cc(*)cc1-c1ccccc1 (repeat unit)	180.00
*CC(c1ccccn1)C(c1ccccc1)C(*)c1ccccn1 (repeat unit)	150.00
*CCCCCCCCCCCCCCC(=O)N* (repeat unit)	-7.00
*C(OC(F)(F)F)C(*)(F)F (repeat unit)	-10.00
*OC(C)C(*)=O (repeat unit) [poly(l - lactic acid)]	51.4 ± 43
*CO* (repeat unit) [Polyoxymethylene ]	-56 ± 8.9

Second part, the compound after the results:

glass transition temperature [°C]	SMILES
45.00	*CC(*)(C)C(=O)OCCCCCC(=O)Oc1ccc(OC(=O)c2ccc(OCCC)cc2)cc1 (repeat unit)
305.00	*C(=O)c1cc2c(cc1Cl)C(=O)N(c1cc(N3C(=O)c4cc(*)c(Cl)cc4C3=O)cc(C(F)(F)F)c1)C2=O (repeat unit)
321.00	*c1ccc(C(c2ccccc2)c2ccc(-n3c(=O)c4cc5c(=O)n(*)c(=O)c5cc4c3=O)cc2)cc1 (repeat unit)
340.00	*c1ccc(C(=O)Nc2ccc(-n3c(=O)c4cc5c(=O)n(*)c(=O)c5cc4c3=O)cc2C(=O)OCC)cc1 (repeat unit)
72.00	*/C(C#N)=C/c1cc(OCC(CC)CCCC)c(/C=C(\C#N)c2ccc3c4ccc(*)cc4n(CC(CC)CCCC)c3c2)cc1OCC(CC)CCCC (repeat unit)
264.00	*c1ccc(-c2ccc(C(*)(C(F)(F)F)C(F)(F)F)cc2)cc1 (repeat unit)
175.00	*CCOC(=O)Nc1ccc(C)c(NC(=O)OCCOc2ccc(C3(c4ccc(O*)cc4)c4ccccc4-c4ccccc43)cc2)c1 (repeat unit)
348.00	*c1ccc(Cc2ccc(N3C(=O)c4cc(-c5ccc([Si](C)(C)C)cc5)c(-c5cc6c(cc5-c5ccc([Si](C)(C)C)cc5)C(=O)N(*)C6=O)cc4C3=O)cc2)cc1 (repeat unit)
347.50	*C(=O)c1ccc2c(c1)C(=O)N(c1ccc(-c3cc(C(C)(C)C)c(Oc4ccc(N5C(=O)c6ccc(*)cc6C5=O)cc4)c(C(C)(C)C)c3)cc1)C2=O (repeat unit)
65.00	*CCOCCOCCOC(=O)c1cc(/N=N/c2ccc(OCC)cc2)ccc1-c1ccc(/N=N/c2ccc(OCC)cc2)cc1C(=O)O* (repeat unit)
16.00	*CCCCCOC(=O)c1ccc(C(=O)O*)cc1 (repeat unit)
300.50	*c1ccc(Cc2ccc(N3C(=O)c4ccc(Sc5ccc6c(c5)C(=O)N(*)C6=O)cc4C3=O)c(C(C)(C)C)c2)cc1C(C)(C)C (repeat unit)
371.00	*C(=O)c1cc2c(cc1Cl)C(=O)N(c1c(C)cc(C)c(N3C(=O)c4cc(*)c(Cl)cc4C3=O)c1C)C2=O (repeat unit)
263.00	*c1ccc2c(c1)C(=O)N(c1cccc(C(c3cccc(N4C(=O)c5ccc(C(*)(C(F)(F)F)C(F)(F)F)cc5C4=O)c3)(C(F)(F)F)C(F)(F)F)c1)C2=O (repeat unit)
263.00	*Oc1ccc(C(=O)NNC(=O)c2ccc(*)cc2)cc1 (repeat unit)
250.00	*Nc1ccc(NC(=O)c2ccc(NC(=O)CCCCCCCCCCCCC(=O)Nc3ccc(C(*)=O)cc3)cc2)cc1C(=O)OCCCCCCCCCCCCCCCC (repeat unit)
317.00	*Nc1ccc(NC(=O)c2ccc(C(=O)c3ccc(C(*)=O)c(C(=O)O)c3)cc2C(=O)O)cc1 (repeat unit)
-12.00	*CCCCCCCCOc1ccc(CCc2ccc(O*)cc2C)cc1 (repeat unit)
243.10	*c1cc(C(=O)NCCCCCCCCCCCC)cc(N2C(=O)c3ccc(-c4ccc5c(c4)C(=O)N(*)C5=O)cc3C2=O)c1 (repeat unit)
257.00	*Cc1cc2cc(C(=O)Nc3ccc(C(c4ccc(NC(=O)c5cc6cc(*)c(OC(=O)COc7ccc8ccc(=O)oc8c7)cc6oc5=O)cc4)(C(F)(F)F)C(F)(F)F)cc3)c(=O)oc2cc1OC(=O)COc1ccc2ccc(=O)oc2c1 (repeat unit)
305.00	*C(=O)c1ccc2c(c1)C(=O)N(c1cc(N3C(=O)c4ccc(*)cc4C3=O)c(C)cc1C)C2=O (repeat unit)
137.00	*CC(c1ccccc1)C1C(=O)N(CCCN(CC)c2ccc(/N=N/c3ccc([N+](=O)[O-])cc3)c(C)c2)C(=O)C1* (repeat unit)
290.00	*C(=O)c1cc2c(cc1Cl)C(=O)N(c1cc(N3C(=O)c4cc(*)c(Cl)cc4C3=O)cc(C(C)(C)C)c1)C2=O (repeat unit)
277.00	*c1ccc(Cc2ccc(NC(=O)c3cccc(-c4nc5cc(-c6ccc7[nH]c(-c8cccc(C(=O)Nc9ccc(Cc%10ccc(-n%11c(=O)c%12cc%13c(=O)n(*)c(=O)c%13cc%12c%11=O)cc%10)cc9)c8)nc7c6)ccc5[nH]4)c3)cc2)cc1 (repeat unit)
276.00	*c1ccc([Si](c2ccccc2)(c2ccccc2)c2ccc(-c3nnc(-c4ccc(-c5nnc(*)o5)o4)o3)cc2)cc1 (repeat unit)
-43.00	*O[Si](C)(C)O[Si](C)(C)O[Si](C)(C)O[Si](C)(C)OC1=C(*)c2cccc3cccc1c23 (repeat unit)
14.2	*Oc1ccc(C(C)(C)c2ccc(OC(=O)CCCCCCCCC(*)=O)cc2)cc1 (repeat unit)
230.00	*c1ccc(Oc2ccc(-c3ccc(Oc4ccc(N5C(=O)c6ccc(Oc7ccc(Oc8ccc9c(c8)C(=O)N(*)C9=O)cc7)cc6C5=O)cc4)cc3)cc2)cc1 (repeat unit)
